# Assay results reported in patent US12419937B2, “High concentration alpha-glucosidase compositions for the treatment of Pompe disease” (Amicus Therapeutics, Inc., priority 2012, dated 2025).
# Assays:
# [1] = Circulating rhGAA after subcutaneous Myozyme® with or without DNJ (FIG. 14); assay type: in vivo; settings: DNJ co-formulated with 20 mg/kg Myozyme® vs 20 mg/kg Myozyme® without DNJ
# [2] = Aggregation of 25 mg/mL Myozyme® (Example 10); assay type: physicochemical; settings: 1 mM DNJ with 25 mg/mL Myozyme®; pH 7.4; 37° C.; 4 weeks; listed as DNJ
# Procedure: Aggregation was assessed after a 4 week incubation period.
# A liquid formulation comprising DNJ and GAA was prepared by dissolving DNJ in water to achieve a concentration of 10 mM DNJ. GAA was reconstituted in 1.8 ml water, and dialyzed overnight in phosphate buffered-saline (pH 7.4). […] of DNJ (10 mM) was then be added to 400 microliters of GAA, such that the GAA was at a concentration of 25 mg/ml.
# 25 mg/mL Myozyme® was incubated with or without 1 mM DNJ in phosphate-buffered saline at pH 7.4. Aggregation of Myozyme® was assessed after incubation for 4 weeks at 37° C.
# [3] = Circulating half-life and quadriceps uptake of Myozyme® in rats, tail vein (Example 11); assay type: in vivo, Sprague-Dawley rats; settings: 30 mg/kg DNJ with 10 mg/kg Myozyme® via tail vein
# Procedure: Sprague-Dawley rats were administered 10 mg/kg Myozyme® or 30 mg/kg DNJ mixed with 10 mg/kg Myozyme® via tail vein. GAA activity was measured in plasma and quadriceps tissue. Baseline GAA activity in quadriceps was subtracted (˜16 nmol/mg protein/hr) from the measured GAA following GAA or DNJ and GAA administration.
# [4] = biological target: T1, recombinant human GAA (Myozyme®) (Homo sapiens, UniProt P10253); assay: SYPRO Orange thermal stability assay (heat-induced denaturation); assay type: physicochemical; settings: pH 7.4; 100 μM 1-DNJ-HCl; vs Myozyme® alone
# T1 construct: purchased Genzyme Corp
# Description: The thermal stability assay utilizes heat to induce protein denaturation, which is monitored using a SYPRO Orange dye that fluoresces upon binding to hydrophobic amino acids (which are not exposed in a folded protein).
# FIG. 5 depicts the results of a thermal stability assay that utilizes heat to induce protein denaturation, which is monitored using a SYPRO Orange dye that fluoresces upon binding to hydrophobic amino acids (which are not exposed in a folded protein).
# Denaturation is monitored using a SYPRO Orange dye that fluoresces upon binding to hydrophobic amino acids (which are not exposed in a folded protein).
# The thermal stability was performed at pH 7.4 for two formulations, which corresponds to the pH of the ER.
# [5] = biological target: T1, recombinant human GAA (Myozyme®); assay: SYPRO Orange protein folding monitored over 24 hours at 37° C.; assay type: physicochemical; settings: 100 μM 1-DNJ-HCl, plasma pH
# Procedure: FIG. 2B depicts a parallel SYPRO Orange thermal stability experiment to determine if the loss of enzyme activity shown in FIG. 2A, particularly the loss of Myozyme® activity at ER pH (7.4), correlates with protein unfolding and denaturation.
# In order to determine if loss of initial enzyme activity is correlated to failure to maintain a proper conformation, a SYPRO Orange thermal stability experiment was performed on the samples above as generally described in Example 1. […] Based on this experiment, the % of GAA folded was estimated and plotted in FIG. 2B.
# [6] = biological target: T1, recombinant human GAA (Myozyme®); assay: Residual GAA enzyme activity in buffer at 37° C. (4-MU-α-glucose); assay type: biochemical; settings: 50 μM 1-DNJ, plasma pH (7.4), 24 hours
# Procedure: GAA activity was evaluated to assess the ability of an ASSC of GAA to prolong the activity of the rhGAA over time. Myozyme® (45 nM) was incubated in pH 7.4 or pH 5.2 buffer with or without 50 μM 1-DNJ at 37° C. over 24 hours. Samples were assayed for GAA enzyme activity using 4-MU-α-glucose at 0, 3, 6 and 24 hours and the residual GAA activity was expressed as % of initial activity.
# Residual GAA activity was determined for four formulations:
# Activity was measured, based on the % of initial activity (t=0) over 24 hours. Samples were assayed for GAA enzyme activity based on the hydrolysis of the fluorogenic substrate 4-MU-α-glucose at 0, 3, 6 and 24 hours. The GAA activity was expressed as % of initial activity, i.e. residual activity.
smiles,measurement,setting,value
"OC[C@H]1NC[C@H](O)[C@@H](O)[C@@H]1O [1-DNJ, 1-deoxynojirimycin]",circulating levels of rhGAA,[1],increased the circulating levels of rhGAA
same,aggregation of Myozyme®,[2],reduces aggregation
same,tissue uptake of Myozyme® in quadriceps,[3],increased
same,stability of Myozyme® (heat required to denature) on addition of the ASSC,[4],significantly increased
same,effect on GAA denaturation and loss of enzyme activity,[5],can prevent GAA denaturation and loss of enzyme activity
same,effect on loss of GAA enzyme activity,[6],ameliorates the loss of GAA enzyme activity
